Source: patent US11292809B2, “Crystals of glycyrrhizic acid derivatives, crystalline compositions, pharmaceutical compositions and uses thereof” (CHIA TAI TIANQING PHARMACEUTICAL GROUP CO., LTD., priority 2018, dated 2022)

Key:
[1] = Color and clarity of solution test; type: physicochemical; details: 0.5 g dissolved in 10 ml dilute ammonia solution (1→100)
Protocol: “Color and clarity of solution test” is particularly important, and also a required inspection item for active ingredients used in preparations for injection. Weigh 0.5 g of the crystalline form A obtained in example 5, dissolve it with 10 ml dilute ammonia solution (1→100), and the solution may be clear and colorless. If the solution is colored, compare it with the yellow 2 #standard color solution (Method 1, General Principles 0901, the Chinese Pharmacopoeia), and the former should not be intensely colored than the latter. If the solution is turbid, compare it with the turbidity 0.5 #standard solution (Method 1, General Principles 0902, the Chinese Pharmacopoeia), and the former should not be more intensely turbid than the latter.

[2] = Measurement of particle size and specific surface area; type: physicochemical
Text: For the purpose of this application, “X10” represents the particle diameter corresponding to 10% of the particle size distribution, in other words, cumulative 10% of the particles in all the tested particles are smaller than X10; “X50” represents the particle size corresponding to 50% of the particle size distribution, in other words, cumulative 50% of the particles in all the tested particles are smaller than X50; “X90” represents the particle size corresponding to 90% of the particle size distribution, in other words, cumulative 90% of the particles in all the tested particles are smaller than X90.
Sv and Sm denote specific surface areas, i.e., total surface area of a material per unit volume (Sv) and total surface area of a material per unit of mass (Sm) respectively.
Particle size distribution is determined according to the laser method using the instrument below: full-automatic dry-wet laser particle sizer, VIBRI (HELOSBR).

[3] = tested on: liver-injury animal models induced by different hepatotoxic agents; details: cited from earlier work
[4] = particle size distribution, laser method
[5] = liver-injury animal models induced by different hepatotoxic agents

| SMILES | clarity test ([1]; compared with turbidity 0.5# standard solution) | color of solution test ([1]; compared with yellow 2# standard color solution) | X10 [2, 4] | X50 [2, 4] | X90 [2, 4] | Sm ([2]; specific surface area per unit of mass) | Sv ([2]; specific surface area per unit volume) | hepatocyte degeneration and necrosis and inflammatory cell infiltration [3, 5] | hepatocyte regeneration [3, 5] | serum transaminase elevation in animals [3, 5] | effect against liver injury compared with natural glycyrrhizic acids ([3]; versus natural glycyrrhizic acids) |
| --- | --- | --- | --- | --- | --- | --- | --- | --- | --- | --- | --- |
| CC1(C)[C@@H](O[C@H]2O[C@H](C(=O)[O-])[C@@H](O)[C@H](O)[C@H]2O[C@@H]2O[C@H](C(=O)[O-])[C@@H](O)[C@H](O)[C@H]2O)CC[C@]2(C)[C@H]3C(=O)C=C4[C@H]5C[C@@](C)(C(=O)O)CC[C@]5(C)CC[C@@]4(C)[C@]3(C)CC[C@@H]12.[Mg+2] [crystalline form A, magnesium isoglycyrrhizinate] | The solution is clear, and less | The solution is colorless, and less | 6.19 μm | 42.18 μm | 91.80 μm | 0.64 m^2/g | 0.44 m^2/cm^3 |  |  |  |  |
| CC1(C)[C@@H](O[C@H]2O[C@H](C(=O)[O-])[C@@H](O)[C@H](O)[C@H]2O[C@@H]2O[C@H](C(=O)[O-])[C@@H](O)[C@H](O)[C@H]2O)CC[C@]2(C)[C@H]3C(=O)C=C4[C@H]5C[C@@](C)(C(=O)O)CC[C@]5(C)CC[C@@]4(C)[C@]3(C)CC[C@@H]12.[Mg+2] [magnesium isoglycyrrhizinate] |  |  |  |  |  |  |  | alleviate | promote | significantly inhibit | obviously superior |
